# Results as given in the CATMoS acute toxicity set (Mansouri et al. 2021).
# Assay: GHS categories as the set defines them, by LD50: 1 up to 5, 2 up to 50, 3 up to 300, 4 up to 2000, 5 above 2000 mg/kg
# Details: rat; in vivo; po
# Text: […]The data set underlying the modeling effort for this project was initially compiled by NICEATM and U.S. EPA’s CCTE. Briefly, LD50 data were collected from rat acute oral systemic toxicity tests, including limit tests, ranges/confidence intervals, and discrete LD50 values. The full data set included 21,200 LD50 entries for 15,688 substances. […] Data were reviewed to ensure that LD50 values with obvious errors in the extracted data such as unit conversion errors (e.g., comma and decimal separator misplacements) were either fixed or removed. After this review, 16,209 LD50 values remained. Many of the chemicals represented had multiple LD50 entries, requiring that a single representative value per Chemical Abstracts Service Registry Number (CASRN) identifier be defined to facilitate modeling efforts. Based on ATWG feedback and to define the representative LD50 as a protective value while accounting for the distribution across multiple LD50s, the median of the lowest quartile was computed using only discrete LD50 values (omitting limit test data and range and confidence interval data). A detailed summary of the data compilation is available online on the NICEATM webpage dedicated to the collaborative modeling project (NTP 2020).
# […][…] For categorical designations, limit test and range/confidence interval LD50 data were integrated wherever possible. As such, the number of chemicals with end point values/calls varies across the modeling end points (Table 3) based on whether chemicals had representative LD50 values and/or other data. If a chemical had both, the representative value was used to determine categorical calls rather than limit test data. Some data were useable only for certain end points and categories depending on the thresholds. For example, ranges that spanned multiple hazard categories were considered only for the binary (very toxic/nontoxic) end points and omitted from rendering a determination for hazard category assignment.
# […]The final data set comprising 11,992 chemicals was split into training and evaluation sets […], respectively. This process was performed semirandomly by ordering chemicals based on the five end points (categorical and continuous LD50 values) and partitioning every fourth record into the evaluation set accordingly. This approach was taken to ensure an equivalent distribution of the LD50 values and the different hazard categories between the training and the evaluation sets without supervised sampling of the chemicals based on structures (Figure 1A). The sources of the chemical structures were also kept equivalent between the two sets, with chemical structures obtained from DSSTox, being the highest quality, representing over 75% of each set (Figure 1B).
row,SMILES,GHS category
1,CCCCCCCCC=CCCCCCCCC(=O)OCC(COC(=O)CCCCCCCC=CCCCCCCCC)(COC(=O)CCCCCCCC=CCCCCCCCC)COC(=O)CCCCCCCC=CCCCCCCCC (stereo not given),5
2,CCC1COC(Cn2cncn2)(c2cc3ccccc3o2)O1 (stereo not given),4
3,CCOC(=O)NCC1CCN(c2nc(N)c3cc(OC)c(OC)cc3n2)CC1,4
4,CCCCCCCC/C=C\CCCCCCCCCCCC(N)=O,5
5,CCN(C(=O)CCCSc1nnnn1C)C1CCCCC1O (stereo not given),4
6,O=C(C=Cc1ccccc1)OCCCc1ccccc1,5
7,Cc1ccc(-c2c(Cl)nc(C#N)n2S(=O)(=O)N(C)C)cc1,5
8,CCCCCCCCOC(=O)C(C)C,5
9,COc1ccc(C2c3ccc(OC)cc3CCN2c2ccccc2)cc1 (stereo not given),4
10,CCCCCOC=O,5
11,CC(CC=O)CCCC(C)(C)O (stereo not given),5
12,CC(=O)OC1CCC2(C)C(CCC3(C)C2C(=O)C=C2C4CC(C)(C(=O)O)CCC4(C)CCC23C)C1(C)C (stereo not given),5
13,COc1ccc(OCCCCN2CCN(CCc3cc(OC)c(OC)c(OC)c3)CC2)c(C2Sc3ccccc3N2C(C)=O)c1 (stereo not given),4
14,CN[C@H](CC(N)=O)C(=O)NC(=O)[C@@H](N[C@@H]1C(=O)N2C1SC(C)(C)[C@@H]2C(=O)O)c1ccc(O)cc1 (stereo not given in full),5
15,CCC(C)C(NC(=O)C(Cc1cnc[nH]1)NC(=O)C(CCSC)NC(=O)C(CS)NC(=O)C(NC(=O)CNC(=O)CNC(=O)C(CC(N)=O)NC(=O)C(CC(C)C)NC(=O)C(CS)NC(=O)C(Cc1ccc(O)cc1)NC(=O)CNC(=O)C(CC(=O)O)NC(=O)C(Cc1ccc(O)cc1)NC(=O)C(CO)NC(=O)C(CO)NC(=O)C1CCCN1C(=O)C(CS)NC(=O)CNC(=O)C1CCCN1C(=O)C(Cc1ccc(O)cc1)NC(=O)C(CO)NC(=O)C(N)CC(N)=O)C(C)C)C(=O)NC(CCC(=O)O)C(=O)NC(CO)C(=O)NC(CC(C)C)C(=O)NC(CC(=O)O)C(=O)NC(CO)C(=O)NC(Cc1ccc(O)cc1)C(=O)NC(C(=O)NC(CS)C(=O)NC(CC(N)=O)C(=O)NC(CS)C(=O)NC(C(=O)NC(C(=O)NCC(=O)NC(Cc1ccc(O)cc1)C(=O)NC(CO)C(=O)NCC(=O)NC(CC(=O)O)C(=O)NC(CCCNC(=N)N)C(=O)NC(CS)C(=O)NC(CCC(N)=O)C(=O)NC(C(=O)NC(CCCNC(=N)N)C(=O)NC(CC(=O)O)C(=O)NC(CC(C)C)C(=O)NC(CCCNC(=N)N)C(=O)NC(Cc1c[nH]c2ccccc12)C(=O)NC(Cc1c[nH]c2ccccc12)C(=O)NC(CCC(=O)O)C(=O)NC(CC(C)C)C(=O)NC(CCCNC(=N)N)C(=O)O)C(C)O)C(C)CC)C(C)C)C(C)O (stereo not given),5
16,CCOC(=O)c1cnn(-c2cccc(C)c2)c1S(C)(=O)=O,4
17,CCOC(=O)C1=C(C)NC(C)=C(C(=O)OCCN2C(=O)c3ccccc3S2(=O)=O)C1C (stereo not given),5
18,NS(=O)(=O)c1ccc(N2CCCCS2(=O)=O)cc1,5
19,NC(=O)c1ccc(N)cc1,5
20,C,5

row,SMILES,GHS category
1,CC(C)(C)c1cc(CCC(=O)NCCCCCCNC(=O)CCc2cc(C(C)(C)C)c(O)c(C(C)(C)C)c2)cc(C(C)(C)C)c1O,5
2,Cc1cc(CCCCCCCOc2ccc(C3=NCCO3)cc2)on1,5
3,CCN(CCCCCCOC(=O)c1ccc(OC)c(OC)c1)C1CCc2ccccc2C1 (stereo not given),5
4,OC(Cc1ccccc1Cl)(Cn1[nH]cnc1=S)C1(Cl)CC1 (stereo not given),5
5,CNC(=O)Oc1cccc2c1OCO2,3
6,CC1Oc2cc(C(=O)C=Cc3ccccc3)ccc2N(C)C1=O (stereo not given),5
7,O=C=Nc1cccc2ccccc12,5
8,CN1C(=O)C(C)(C)Oc2cc(C(=O)C=Cc3ccc(Cl)cc3)ccc21,5
9,CC(C)C[C@H](NC(=O)[C@@H](Cc1ccc2ccccc2c1)NC(=O)[C@H](Cc1ccc(O)cc1)NC(=O)[C@H](CO)NC(=O)[C@H](Cc1c[nH]c2ccccc12)NC(=O)[C@H](Cc1cnc[nH]1)NC(=O)[C@@H]1CCC(=O)N1)C(=O)N[C@@H](CCCN=C(N)N)C(=O)N1CCC[C@H]1C(=O)NCC(N)=O,3
10,NCCC(=O)NC(Cc1cnc[nH]1)C(=O)O (stereo not given),5
11,C[Si]1(C)O[Si](C)(c2ccccc2)O[Si](C)(C)O[Si](C)(c2ccccc2)O1 (stereo not given),5
12,COC(=O)CCC(=O)OC,5
13,NC[C@H]1O[C@H](O[C@H]2[C@H](O[C@@H]3O[C@H](CO)[C@@H](O)[C@H]3O)C(O)[C@H](N)C[C@@H]2N)[C@H](N)[C@@H](O)[C@@H]1O (stereo not given in full),5
14,CC(C)C(=O)OCC=Cc1ccccc1,5
15,CN(SN(C)C(=O)Oc1ccc(C(C)(C)c2ccc(OC(=O)N(C)SN(C)C(=O)ON=C3CSCCS3)cc2)cc1)C(=O)ON=C1CSCCS1,4
16,Cc1ccccc1N1C(=O)c2cc(S(N)(=O)=O)c(Cl)cc2NC1C (stereo not given),5
17,CC(C)C[C@H]1C(=O)N2CCC[C@H]2[C@]2(O)O[C@](NC(=O)[C@@H]3C=C4c5cccc6[nH]c(Br)c(c56)C[C@H]4N(C)C3)(C(C)C)C(=O)N12,5
18,O=C(O)CNC(=O)c1ccco1,5
19,Nc1cc(Br)c(O)c2c(O)c3c(N)cc(Br)c(O)c3c(O)c12,5
20,Cn1c2cc(C(F)(F)F)ccc2c2oc(C(=O)NCCCN3CCCCC3)cc21,4
